Data published in ChEMBL document CHEMBL1201862, “PubChem BioAssay data set” (2004).
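Assay format: 96-well plates, 48-hour exposure. Abbreviation: GI50, concentration required for 50% inhibition of growth.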 Activity calls are given as the source filed them. Rule as the data show it: active = GI50 up to about 1.1 µM and inactive = higher.

How the values were obtained:
Assay in all cases: NCI anticancer screen, dose series, 48 h
BT-549 = system: BT-549
NCI-H460 = system: NCI-H460
HCT-15 = system: HCT-15
M14 = system: M14
HL-60 = system: HL-60
MDA-N = system: MDA-N
SR = system: SR
U-251 = system: U-251
UACC-257 = system: UACC-257
Malme-3M = system: Malme-3M
EKVX = system: EKVX
OVCAR-8 = system: OVCAR-8
OVCAR-5 = system: OVCAR-5
SF-539 = system: SF-539
OVCAR-3 = system: OVCAR-3
786-0 = system: 786-0
NCI/ADR-RES = system: NCI/ADR-RES
NCI-H23 = system: NCI-H23
MOLT-4 = system: MOLT-4
A498 = system: A498
IGROV-1 = system: IGROV-1
NCI-H226 = system: NCI-H226
SNB-19 = system: SNB-19
COLO 205 = system: COLO 205
LOX IMVI = system: LOX IMVI
MDA-MB-231 = system: MDA-MB-231
OVCAR-4 = system: OVCAR-4
TK-10 = system: TK-10
SK-OV-3 = system: SK-OV-3
A549 = system: A549
K562 = system: K562
SN12C = system: SN12C
HCC 2998 = system: HCC 2998
UO-31 = system: UO-31
CAKI-1 = system: CAKI-1
DU-145 = system: DU-145
SK-MEL-28 = system: SK-MEL-28
SF-268 = system: SF-268
HT-29 = system: HT-29
CCRF-CEM = system: CCRF-CEM
SNB-75 = system: SNB-75
HCT-116 = system: HCT-116
SW-620 = system: SW-620
Hs-578T = system: Hs-578T
SK-MEL-2 = system: SK-MEL-2
HOP-92 = system: HOP-92
SF-295 = system: SF-295
MCF7 = system: MCF7
MDA-MB-435 = system: MDA-MB-435
ACHN = system: ACHN
SK-MEL-5 = system: SK-MEL-5
NCI-H522 = system: NCI-H522
KM12 = system: KM12
RXF 393 = system: RXF 393
HOP-62 = system: HOP-62
T47D = system: T47D
UACC-62 = system: UACC-62
PC-3 = system: PC-3
RPMI-8226 = system: RPMI-8226

In the case of COC(=O)N1CC[C@@H]2CCC=C(c3cccc4c3OCO4)[C@@H]21, the GI50 (BT-549) is reported as 81.5 µM (inactive), the GI50 (NCI-H460) is reported as 60 µM (inactive) and the GI50 (HCT-15) is reported as 93.3 µM. The GI50 (M14) was > 100 µM (inactive), the GI50 (HL-60) was 30.9 µM (inactive) and the GI50 (MDA-N) was > 100 µM (inactive). The GI50 (SR) was > 100 µM (inactive), the GI50 (U-251) was > 100 µM (inactive) and the GI50 (UACC-257) was 78.5 µM (inactive). For the same molecule, the GI50 (Malme-3M) was > 100 µM (inactive), the GI50 (EKVX) was 79.4 µM (inactive) and the GI50 (OVCAR-8) was > 100 µM (inactive). For the same molecule, the GI50 (OVCAR-5) was > 100 µM (inactive), the GI50 (SF-539) was > 100 µM (inactive) and the GI50 (OVCAR-3) was > 100 µM (inactive). For the same molecule, the GI50 (786-0) was > 100 µM (inactive), the GI50 (NCI/ADR-RES) was 54.2 µM (inactive) and the GI50 (NCI-H23) was > 100 µM (inactive). The GI50 (MOLT-4) was 26.1 µM (inactive), the GI50 (A498) was > 100 µM (inactive) and the GI50 (IGROV-1) was > 100 µM (inactive). The GI50 (NCI-H226) was > 100 µM (inactive), the GI50 (SNB-19) was 74.3 µM (inactive) and the GI50 (COLO 205) was > 100 µM (inactive). The GI50 (LOX IMVI) was > 100 µM (inactive), the GI50 (MDA-MB-231) was > 100 µM (inactive) and the GI50 (OVCAR-4) was 45.4 µM (inactive). For the same molecule, the GI50 (TK-10) was 82.8 µM (inactive), the GI50 (SK-OV-3) was > 100 µM (inactive) and the GI50 (A549) was > 100 µM (inactive). For the same molecule, the GI50 (K562) was 42.8 µM (inactive), the GI50 (SN12C) was > 100 µM (inactive) and the GI50 (HCC 2998) was > 100 µM (inactive). For the same molecule, the GI50 (UO-31) was 40.7 µM (inactive), the GI50 (CAKI-1) was > 100 µM (inactive) and the GI50 (DU-145) was > 100 µM (inactive). The GI50 (SK-MEL-28) was > 100 µM (inactive), the GI50 (SF-268) was > 100 µM (inactive) and the GI50 (HT-29) was 79.6 µM (inactive). For the same molecule, the GI50 (CCRF-CEM) was 49.3 µM (inactive), the GI50 (SNB-75) was 17.7 µM (inactive) and the GI50 (HCT-116) was > 100 µM (inactive). For the same molecule, the GI50 (SW-620) was > 100 µM (inactive), the GI50 (Hs-578T) was > 100 µM (inactive) and the GI50 (SK-MEL-2) was > 100 µM (inactive). The GI50 (HOP-92) was 22 µM (inactive), the GI50 (SF-295) was > 100 µM (inactive) and the GI50 (MCF7) was > 100 µM (inactive). For the same molecule, the GI50 (MDA-MB-435) was > 100 µM (inactive), the GI50 (ACHN) was > 100 µM (inactive) and the GI50 (SK-MEL-5) was 61.4 µM (inactive). The GI50 (NCI-H522) was > 100 µM (inactive), the GI50 (KM12) was > 100 µM (inactive) and the GI50 (RXF 393) was > 100 µM (inactive). The GI50 (HOP-62) was > 100 µM (inactive), the GI50 (T47D) was 32.1 µM (inactive) and the GI50 (UACC-62) was 81.7 µM (inactive). The GI50 (PC-3) was 54.2 µM (inactive).

For Cc1c(O)oc2ccccc2c1=O, the GI50 (BT-549) was > 100 µM (inactive), the GI50 (NCI-H460) was > 100 µM (inactive) and the GI50 (HCT-15) was over 100 µM. The GI50 (M14) was > 100 µM (inactive), the GI50 (HL-60) was > 100 µM (inactive) and the GI50 (MDA-N) was > 100 µM (inactive). The GI50 (SR) was > 100 µM (inactive), the GI50 (U-251) was > 100 µM (inactive) and the GI50 (UACC-257) was > 100 µM (inactive). The GI50 (Malme-3M) was > 100 µM (inactive), the GI50 (RPMI-8226) was > 100 µM (inactive) and the GI50 (EKVX) was > 100 µM (inactive). For the same molecule, the GI50 (OVCAR-8) was > 100 µM (inactive), the GI50 (OVCAR-5) was > 100 µM (inactive) and the GI50 (SF-539) was > 100 µM (inactive). The GI50 (OVCAR-3) was > 100 µM (inactive), the GI50 (786-0) was > 100 µM (inactive) and the GI50 (NCI/ADR-RES) was > 100 µM (inactive). For the same molecule, the GI50 (NCI-H23) was > 100 µM (inactive), the GI50 (MOLT-4) was > 100 µM (inactive) and the GI50 (A498) was > 100 µM (inactive). The GI50 (IGROV-1) was > 100 µM (inactive), the GI50 (NCI-H226) was > 100 µM (inactive) and the GI50 (SNB-19) was > 100 µM (inactive). For the same molecule, the GI50 (COLO 205) was > 100 µM (inactive), the GI50 (LOX IMVI) was > 100 µM (inactive) and the GI50 (MDA-MB-231) was > 100 µM (inactive). For the same molecule, the GI50 (OVCAR-4) was > 100 µM (inactive), the GI50 (A549) was > 100 µM (inactive) and the GI50 (K562) was > 100 µM (inactive). For the same molecule, the GI50 (SN12C) was > 100 µM (inactive), the GI50 (HCC 2998) was > 100 µM (inactive) and the GI50 (UO-31) was > 100 µM (inactive). For the same molecule, the GI50 (CAKI-1) was > 100 µM (inactive), the GI50 (DU-145) was > 100 µM (inactive) and the GI50 (SK-MEL-28) was > 100 µM (inactive). The GI50 (SF-268) was > 100 µM (inactive), the GI50 (HT-29) was > 100 µM (inactive) and the GI50 (CCRF-CEM) was > 100 µM (inactive). For the same molecule, the GI50 (SNB-75) was > 100 µM (inactive), the GI50 (HCT-116) was > 100 µM (inactive) and the GI50 (SW-620) was > 100 µM (inactive). For the same molecule, the GI50 (Hs-578T) was > 100 µM (inactive), the GI50 (SK-MEL-2) was > 100 µM (inactive) and the GI50 (HOP-92) was > 100 µM (inactive). For the same molecule, the GI50 (SF-295) was > 100 µM (inactive), the GI50 (MCF7) was > 100 µM (inactive) and the GI50 (MDA-MB-435) was > 100 µM (inactive). The GI50 (ACHN) was > 100 µM (inactive), the GI50 (SK-MEL-5) was > 100 µM (inactive) and the GI50 (NCI-H522) was > 100 µM (inactive). For the same molecule, the GI50 (KM12) was > 100 µM (inactive), the GI50 (RXF 393) was > 100 µM (inactive) and the GI50 (HOP-62) was > 100 µM (inactive). The GI50 (T47D) was > 100 µM (inactive), the GI50 (UACC-62) was > 100 µM (inactive) and the GI50 (PC-3) was > 100 µM (inactive).
